Test results taken from doi:10.1101/838656v1 (biorxiv, 2019).
Like-named read-outs stand apart in the source and are kept apart here.

How the values were obtained:
[1] = target: BRD4-BD1 (bromodomain-containing protein 4) (Homo sapiens, UniProt O60885); assay: biochemical
[2] = test system: HMGA2 (mammalian high mobility group protein AT-hook 2); conditions: read-out: Lance Screen IC50; DNA-binding compound; inhibitor
in vitro = conditions: human, a431 cells
[3] = test system: HMGA2 (mammalian high mobility group protein AT-hook 2); conditions: read-out: Alpha Screen IC50; DNA-binding compound; inhibitor

SMILES	IC50 [1]	IC50 [2]	CC50 (in vitro)	IC50 [3]
O=C1c2c(O)ccc(O)c2C(=O)c2c(NCCNCCO)ccc(NCCNCCO)c21 [Mitoxantrone]	990 nM	1770 nM	1650 nM	180 nM
COc1cccc2c1C(=O)c1c(O)c3c(c(O)c1C2=O)C[C@@](O)(C(C)=O)C[C@@H]3O[C@H]1C[C@H](NCc2ccc(CN[C@@H]3C[C@@H](O[C@H]4C[C@](O)(C(C)=O)Cc5c(O)c6c(c(O)c54)C(=O)c4c(OC)cccc4C6=O)O[C@H](C)[C@@H]3O)cc2)[C@H](O)[C@H](C)O1 [WP631]	2050 nM	170 nM	170 nM	44 nM
Cc1ccc(C(=O)Nc2ccc(S(=O)(=O)O)c3cc(S(=O)(=O)O)cc(S(=O)(=O)O)c23)cc1NC(=O)c1cccc(NC(=O)Nc2cccc(C(=O)Nc3cc(C(=O)Nc4ccc(S(=O)(=O)O)c5cc(S(=O)(=O)O)cc(S(=O)(=O)O)c45)ccc3C)c2)c1 [suramin]	> 100000 nM		> 100000 nM	

The next lines start with results.

IC50 [1]	SMILES	IC50 [2]	CC50 (in vitro)	IC50 [3]
16900 nM	Nc1ccc(-c2nc3ccc(-c4nc5ccc(N)cc5[nH]4)cc3[nH]2)cc1 [Ro 90-7501]		> 100000 nM	
5000 nM	O=C(O)C1=CC(=C(c2ccc(O)c(C(=O)O)c2)c2ccc(O)c(C(=O)O)c2)C=CC1=O [aurintricarboxylic acid]		> 100000 nM	
